The NIST ThermoML archive (doi:10.1016/j.jct.2015.09.020)
± gives the expanded uncertainty stated by the source.

Assay: mn = molality of the nth substance listed, in mol/kg
Conditions: 101.3 kPa, Liquid

Cl.NCC(=O)O [glycine hydrochloride] + O
speed of sound (278.15 K, Frequency=2 MHz, Linear variable-path acoustic interferometer, m1 = 0.0508): 1430.8 ± 1.7 m/s | speed of sound (278.15 K, Frequency=2 MHz, Linear variable-path acoustic interferometer, m1 = 0.0811): 1433.6 ± 1.7 m/s | speed of sound (278.15 K, Frequency=2 MHz, Linear variable-path acoustic interferometer, m1 = 0.1008): 1435 ± 1.7 m/s | speed of sound (278.15 K, Frequency=2 MHz, Linear variable-path acoustic interferometer, m1 = 0.1202): 1436.2 ± 1.7 m/s | speed of sound (278.15 K, Frequency=2 MHz, Linear variable-path acoustic interferometer, m1 = 0.1499): 1438.3 ± 1.7 m/s | speed of sound (278.15 K, Frequency=2 MHz, Linear variable-path acoustic interferometer, m1 = 0.1801): 1441.1 ± 1.7 m/s | speed of sound (278.15 K, Frequency=2 MHz, Linear variable-path acoustic interferometer, m1 = 0.2112): 1443.2 ± 1.7 m/s | speed of sound (278.15 K, Frequency=2 MHz, Linear variable-path acoustic interferometer, m1 = 0.2325): 1445.3 ± 1.8 m/s | speed of sound (278.15 K, Frequency=2 MHz, Linear variable-path acoustic interferometer, m1 = 0.2472): 1445.9 ± 1.8 m/s | speed of sound (278.15 K, Frequency=2 MHz, Linear variable-path acoustic interferometer, m1 = 0.2732): 1448 ± 1.8 m/s | speed of sound (278.15 K, Frequency=2 MHz, Linear variable-path acoustic interferometer, m1 = 0.2995): 1449.7 ± 1.8 m/s | speed of sound (278.15 K, Frequency=2 MHz, Linear variable-path acoustic interferometer, m1 = 0.3208): 1451.3 ± 1.8 m/s | speed of sound (278.15 K, Frequency=2 MHz, Linear variable-path acoustic interferometer, m1 = 0.3529): 1454.1 ± 1.8 m/s | mass density (278.15 K, Pycnometric method, m1 = 0.0508): 1002.4 ± 0.28 kg/m3 | mass density (278.15 K, Pycnometric method, m1 = 0.0811): 1003.61 ± 0.29 kg/m3 | mass density (278.15 K, Pycnometric method, m1 = 0.1008): 1004.87 ± 0.29 kg/m3 | mass density (278.15 K, Pycnometric method, m1 = 0.1202): 1005.41 ± 0.3 kg/m3 | mass density (278.15 K, Pycnometric method, m1 = 0.1499): 1006.88 ± 0.31 kg/m3 | mass density (278.15 K, Pycnometric method, m1 = 0.1801): 1008.05 ± 0.32 kg/m3 | mass density (278.15 K, Pycnometric method, m1 = 0.2112): 1009.37 ± 0.34 kg/m3 | mass density (278.15 K, Pycnometric method, m1 = 0.2325): 1010.42 ± 0.36 kg/m3 | mass density (278.15 K, Pycnometric method, m1 = 0.2472): 1011.07 ± 0.35 kg/m3 | mass density (278.15 K, Pycnometric method, m1 = 0.2732): 1012.17 ± 0.36 kg/m3 | mass density (278.15 K, Pycnometric method, m1 = 0.2995): 1013.21 ± 0.37 kg/m3 | mass density (278.15 K, Pycnometric method, m1 = 0.3208): 1014.01 ± 0.36 kg/m3 | mass density (278.15 K, Pycnometric method, m1 = 0.3529): 1015.11 ± 0.37 kg/m3 | speed of sound (288.15 K, Frequency=3 MHz, Sing-around technique in a fixed-path interferometer, m1 = 0.05): 1469.8 ± 1.2 m/s | speed of sound (288.15 K, Frequency=3 MHz, Sing-around technique in a fixed-path interferometer, m1 = 0.0802): 1471.7 ± 1.2 m/s | speed of sound (288.15 K, Frequency=3 MHz, Sing-around technique in a fixed-path interferometer, m1 = 0.1002): 1473.1 ± 1.2 m/s | speed of sound (288.15 K, Frequency=3 MHz, Sing-around technique in a fixed-path interferometer, m1 = 0.1216): 1474.5 ± 1.2 m/s | speed of sound (288.15 K, Frequency=3 MHz, Sing-around technique in a fixed-path interferometer, m1 = 0.1506): 1476.6 ± 1.2 m/s | speed of sound (288.15 K, Frequency=3 MHz, Sing-around technique in a fixed-path interferometer, m1 = 0.1821): 1479 ± 1.2 m/s | speed of sound (288.15 K, Frequency=3 MHz, Sing-around technique in a fixed-path interferometer, m1 = 0.21): 1480.8 ± 1.3 m/s | speed of sound (288.15 K, Frequency=3 MHz, Sing-around technique in a fixed-path interferometer, m1 = 0.2318): 1482.2 ± 1.3 m/s | speed of sound (288.15 K, Frequency=3 MHz, Sing-around technique in a fixed-path interferometer, m1 = 0.2508): 1483.4 ± 1.3 m/s | speed of sound (288.15 K, Frequency=3 MHz, Sing-around technique in a fixed-path interferometer, m1 = 0.2723): 1484.8 ± 1.3 m/s | speed of sound (288.15 K, Frequency=3 MHz, Sing-around technique in a fixed-path interferometer, m1 = 0.3012): 1486.4 ± 1.3 m/s | speed of sound (288.15 K, Frequency=3 MHz, Sing-around technique in a fixed-path interferometer, m1 = 0.3205): 1488.1 ± 1.3 m/s | speed of sound (288.15 K, Frequency=3 MHz, Sing-around technique in a fixed-path interferometer, m1 = 0.3534): 1489.9 ± 1.3 m/s | mass density (288.15 K, Vibrating tube method, m1 = 0.05): 1001.39 ± 0.12 kg/m3 | mass density (288.15 K, Vibrating tube method, m1 = 0.0802): 1002.72 ± 0.13 kg/m3 | mass density (288.15 K, Vibrating tube method, m1 = 0.1002): 1003.61 ± 0.14 kg/m3 | mass density (288.15 K, Vibrating tube method, m1 = 0.1216): 1004.54 ± 0.15 kg/m3 | mass density (288.15 K, Vibrating tube method, m1 = 0.1506): 1005.74 ± 0.17 kg/m3 | mass density (288.15 K, Vibrating tube method, m1 = 0.1821): 1007.14 ± 0.19 kg/m3 | mass density (288.15 K, Vibrating tube method, m1 = 0.21): 1008.37 ± 0.21 kg/m3 | mass density (288.15 K, Vibrating tube method, m1 = 0.2318): 1009.27 ± 0.22 kg/m3 | mass density (288.15 K, Vibrating tube method, m1 = 0.2508): 1010.04 ± 0.23 kg/m3 | mass density (288.15 K, Vibrating tube method, m1 = 0.2723): 1010.95 ± 0.25 kg/m3 | mass density (288.15 K, Vibrating tube method, m1 = 0.3012): 1012.17 ± 0.27 kg/m3 | mass density (288.15 K, Vibrating tube method, m1 = 0.3205): 1012.97 ± 0.29 kg/m3 | mass density (288.15 K, Vibrating tube method, m1 = 0.3534): 1014.37 ± 0.32 kg/m3 | speed of sound (298.15 K, Frequency=3 MHz, Sing-around technique in a fixed-path interferometer, m1 = 0.0515): 1500 ± 1.2 m/s | speed of sound (298.15 K, Frequency=3 MHz, Sing-around technique in a fixed-path interferometer, m1 = 0.0839): 1502 ± 1.2 m/s | speed of sound (298.15 K, Frequency=3 MHz, Sing-around technique in a fixed-path interferometer, m1 = 0.1035): 1503.3 ± 1.2 m/s | speed of sound (298.15 K, Frequency=3 MHz, Sing-around technique in a fixed-path interferometer, m1 = 0.1305): 1504.9 ± 1.2 m/s | speed of sound (298.15 K, Frequency=3 MHz, Sing-around technique in a fixed-path interferometer, m1 = 0.1453): 1505.9 ± 1.2 m/s | speed of sound (298.15 K, Frequency=3 MHz, Sing-around technique in a fixed-path interferometer, m1 = 0.185): 1508.2 ± 1.2 m/s | speed of sound (298.15 K, Frequency=3 MHz, Sing-around technique in a fixed-path interferometer, m1 = 0.2073): 1509.4 ± 1.3 m/s | speed of sound (298.15 K, Frequency=3 MHz, Sing-around technique in a fixed-path interferometer, m1 = 0.2401): 1511.3 ± 1.3 m/s | speed of sound (298.15 K, Frequency=3 MHz, Sing-around technique in a fixed-path interferometer, m1 = 0.2727): 1513.2 ± 1.3 m/s | speed of sound (298.15 K, Frequency=3 MHz, Sing-around technique in a fixed-path interferometer, m1 = 0.3029): 1514.9 ± 1.3 m/s | speed of sound (298.15 K, Frequency=3 MHz, Sing-around technique in a fixed-path interferometer, m1 = 0.3177): 1515.8 ± 1.3 m/s | speed of sound (298.15 K, Frequency=3 MHz, Sing-around technique in a fixed-path interferometer, m1 = 0.3535): 1517.9 ± 1.3 m/s | mass density (298.15 K, Vibrating tube method, m1 = 0.0839): 1000.75 ± 0.13 kg/m3 | mass density (298.15 K, Vibrating tube method, m1 = 0.1035): 1001.57 ± 0.14 kg/m3 | mass density (298.15 K, Vibrating tube method, m1 = 0.1305): 1002.87 ± 0.16 kg/m3 | mass density (298.15 K, Vibrating tube method, m1 = 0.1453): 1003.51 ± 0.16 kg/m3 | mass density (298.15 K, Vibrating tube method, m1 = 0.185): 1005.13 ± 0.18 kg/m3 | mass density (298.15 K, Vibrating tube method, m1 = 0.2073): 1005.96 ± 0.2 kg/m3 | mass density (298.15 K, Vibrating tube method, m1 = 0.2401): 1007.29 ± 0.22 kg/m3 | mass density (298.15 K, Vibrating tube method, m1 = 0.2727): 1008.59 ± 0.24 kg/m3 | mass density (298.15 K, Vibrating tube method, m1 = 0.3029): 1009.81 ± 0.27 kg/m3 | mass density (298.15 K, Vibrating tube method, m1 = 0.3177): 1010.44 ± 0.28 kg/m3 | mass density (298.15 K, Vibrating tube method, m1 = 0.3535): 1011.84 ± 0.3 kg/m3
